The source made the active and inactive calls. The rule behind the calls is not given here.

This test concerns the target Human immunodeficiency virus type 1 reverse transcriptase (Human immunodeficiency virus 1) (UniProt Q72547). Nature of the test: Inhibition of HIV1 reverse transcriptase at 10 uM.

As to `CCCC(=O)OC(C(CC)C(C)C)C(OC(=O)CCC)[C@@H](C)[C@H]1[C@@H](O)[C@H](OC(C)=O)[C@H]2[C@@H]3CCC4C[C@H](OS(=O)(=O)O)[C@@H](OS(=O)(=O)O)C[C@]4(C)[C@H]3CC[C@@]21C` (stereo partly specified), the outcome was Active.

For the origin of these results see ChEMBL document CHEMBL1156376, “Clathsterol, a novel anti-HIV-1 RT sulfated sterol from the sponge Clathria species” (J Nat Prod, 2001).
